Test results published in article PMC12586182 (Frontiers in Oncology, 2025).

Legend:
Test in all cases: Cell viability assay (ATPlite)
Format in all cases: cell-based
RL95-2 = conditions: Homo sapiens; RL95-2 cell line, 72 hours incubation
Method: (§1) Intracellular ATP content was used as an indirect readout of cell number using the ATPlite 1Step bioluminescence assay (Revvity, Groningen, the Netherlands). Cells were seeded in 384-well plates at an optimized density to ensure unrestricted growth and maximal signal at the end of the experiment. After 24 hours of incubation, the starting cell number was determined by adding ATPlite to each well of a control plate and recording luminescence on an Envision multimode reader (Revvity, Waltham, MA, USA) ([4]). Compounds were diluted in DMSO in √10-fold steps from 10 mmol/L stocks to obtain 9-point dilution series. After further 31.6-fold dilution in 20 mmol/L HEPES (pH 7.4), the dilution series were added in duplicate to the cells in the 384-well plates to determine the effect of the compounds on cell viability. Vehicle-treated controls were included to determine maximal cell proliferation. The final DMSO concentration was 0.4% (v/v) in all wells. After incubation for an additional 72 hours, the ATP content was measured in each well using ATPlite. The luminescent signal in inhibitor-treated wells was normalized to vehicle-treated control wells to determine the percentage viability at each concentration. Cell doublings were determined by relating the cell number of vehicle-treated controls to the starting cell number for each cell line. The viability assay of a cell line was repeated when the cell doubling deviated > 2-fold from the historic doubling as determined by multiple independent experiments. The quality of the complete assay was determined by a parallel test with doxorubicin on two cell lines. IC50 values were calculated by fitting a four-parameter logistic model to the percentage viability values using IDBS XLfit5 (IDBS, Guildford, United Kingdom). All curves were visually inspected and submitted to an F-test as implemented in IDBS XLfit5. Curves with an F-value above 1.5 were invalidated and IC50 values were maximized at the highest concentration.

L-82 = conditions: Homo sapiens; L-82 cell line, 72 hours incubation
Method: as §1

MOLM-13 = conditions: Homo sapiens; MOLM-13 cell line, 72 hours incubation
Method: as §1

MDA-MB-231 = conditions: Homo sapiens; MDA-MB-231 cell line, 72 hours incubation
Method: as §1

U-118MG = conditions: Homo sapiens; U-118MG cell line, 72 hours incubation
Method: as §1

BL-70 = conditions: Homo sapiens; BL-70 cell line, 72 hours incubation
Method: as §1

HCC4006 = conditions: Homo sapiens; HCC4006 cell line, 72 hours incubation
Method: as §1

A-673 = conditions: Homo sapiens, A673; A-673 cell line, 72 hours incubation
Method: as §1

MM1.R = conditions: Homo sapiens, MM.1R; MM1.R cell line, 72 hours incubation
Method: as §1

CTV-1 = conditions: Homo sapiens; CTV-1 cell line, 72 hours incubation
Method: as §1

A-549 = conditions: Homo sapiens, A549; A-549 cell line, 72 hours incubation
Method: as §1

KLE = conditions: Homo sapiens; KLE cell line, 72 hours incubation
Method: as §1

A-427 = conditions: Homo sapiens; A-427 cell line, 72 hours incubation
Method: as §1

TOV-112D = conditions: Homo sapiens, TOV112D; TOV-112D cell line, 72 hours incubation
Method: as §1

JM-1 = conditions: Homo sapiens, JM1; JM-1 cell line, 72 hours incubation
Method: as §1

SW780 = conditions: Homo sapiens; SW780 cell line, 72 hours incubation
Method: as §1

SW900 = conditions: Homo sapiens; SW900 cell line, 72 hours incubation
Method: as §1

RD = conditions: Homo sapiens; RD cell line, 72 hours incubation
Method: as §1

U2OS = conditions: Homo sapiens; U2OS cell line, 72 hours incubation
Method: as §1

ACHN = conditions: Homo sapiens; ACHN cell line, 72 hours incubation
Method: as §1

SK-N-FI = conditions: Homo sapiens; SK-N-FI cell line, 72 hours incubation
Method: as §1

CCF-STTG1 = conditions: Homo sapiens; CCF-STTG1 cell line, 72 hours incubation
Method: as §1

LNCaP clone FGC = conditions: Homo sapiens; LNCaP clone FGC cell line, 72 hours incubation
Method: as §1

KMS-11 = conditions: Homo sapiens; KMS-11 cell line, 72 hours incubation
Method: as §1

SW837 = conditions: Homo sapiens; SW837 cell line, 72 hours incubation
Method: as §1

LS411N = conditions: Homo sapiens, LS-411N; LS411N cell line, 72 hours incubation
Method: as §1

786-O = conditions: Homo sapiens, 786-0; 786-O cell line, 72 hours incubation
Method: as §1

BT-474 = conditions: Homo sapiens; BT-474 cell line, 72 hours incubation
Method: as §1

UWB1.289 = conditions: Homo sapiens, UWB1289; UWB1.289 cell line, 72 hours incubation
Method: as §1

NCI-H716 = conditions: Homo sapiens; NCI-H716 cell line, 72 hours incubation
Method: as §1

SK-OV-3 = conditions: Homo sapiens; SK-OV-3 cell line, 72 hours incubation
Method: as §1

O=C(c1ccc(Oc2ccccc2)cc1Cl)c1c[nH]c2ncnc(N[C@@H]3CC[C@@H](CO)OC3)c12 [nemtabrutinib] gave an IC50 (RL95-2) of 1.18 µM, an IC50 (L-82) of 14 µM and an IC50 (MOLM-13) of 1 µM. It also gave an IC50 (MDA-MB-231) of 2.59 µM, an IC50 (U-118MG) of 12.9 µM and an IC50 (BL-70) of 0.498 µM. The IC50 (HCC4006) was 6.17 µM, the IC50 (A-673) was 3.6 µM and the IC50 (MM1.R) was 8.23 µM. The IC50 (CTV-1) was 0.702 µM, the IC50 (A-549) was 7.26 µM and the IC50 (KLE) was 2.11 µM. For the same compound, the IC50 (A-427) was 1.24 µM, the IC50 (TOV-112D) was 2.76 µM and the IC50 (JM-1) was 23.8 µM. For the same compound, the IC50 (SW780) was 2.79 µM, the IC50 (SW900) was 2.29 µM and the IC50 (RD) was 3.44 µM. It also gave an IC50 (U2OS) of 2.67 µM, an IC50 (ACHN) of 2.29 µM and an IC50 (SK-N-FI) of 3.94 µM. The IC50 (CCF-STTG1) was 16.7 µM, the IC50 (LNCaP clone FGC) was greater than 31.6 µM and the IC50 (KMS-11) was 4.65 µM. It also gave an IC50 (SW837) of 3.81 µM, an IC50 (LS411N) of 0.767 µM and an IC50 (786-O) of 6.71 µM. It also gave an IC50 (BT-474) of 3.11 µM, an IC50 (UWB1.289) of 2.49 µM and an IC50 (NCI-H716) of 1.46 µM. The IC50 (SK-OV-3) was 4.95 µM.
